Measurements as given in patent US9388162B2, “Substituted morphinans and the use thereof” (Purdue Pharma L.P., priority 2012, dated 2016).

Experiments:
[1] = molecular target: T1, κ opioid receptor (Homo sapiens (Human), UniProt P41145); assay: κ-opioid receptor [35S]GTPγS functional assay, U-2 OS cells; format: biochemical; conditions: κ GTP; for EC50: read-out: Activity Response κ EC50 (nM) [mean ± SEM]; for Emax: relative to U69,593, read-out: Activity Response κ Emax (%)
[2] = molecular target: T2, μ-opioid receptors (Homo sapiens (Human), UniProt P35372); assay: μ-opioid receptor [35S]GTPγS functional assay, U-2 OS cells; format: biochemical; conditions: μ GTP; for EC50: read-out: Activity Response μ EC50 (nM) [mean ± SEM]; for Emax: relative to DAMGO, read-out: Activity Response μ Emax (%)
[3] = molecular target: recombinant human kappa opioid receptor (κ) (Homo sapiens (Human), UniProt P41145); assay: κ-opioid receptor radioligand dose displacement binding assay ([3H]-U69,593); conditions: mean ± SEM, read-out: Binding Affinity Opioid Receptor Ki (nM) [mean ± SEM] κ
Procedure: (§1) Membranes from HEK-293 cells, CHO or U-2 OS cells expressing the recombinant human kappa opioid receptor (κ) were prepared by lysing cells in ice cold hypotonic buffer (2.5 mM MgCl2, 50 mM HEPES, pH 7.4) (10 mL/10 cm dish) followed by homogenization with a tissue grinder/Teflon pestle. Membranes were collected by centrifugation at 30,000×g for 15 min at 4° C. and pellets were resuspended in hypotonic buffer to a final concentration of 1-3 mg/mL. Protein concentrations were determined using the BioRad protein assay reagent with bovine serum albumen as standard. Aliquots of κ receptor membranes were stored at −80° C.
Radioligand dose displacement assays used 0.4 nM [^3H]-U69,593 (GE Healthcare, Piscataway, N.J.; 40 Ci/mmole) with 15 μg membrane protein (recombinant κ opioid receptor expressed in HEK 293 cells; in-house prep) in a final volume of 200 μl binding buffer (5% DMSO, 50 mM Trizma base, pH 7.4). Non-specific binding was determined in the presence of 10 μM unlabeled naloxone or U69,593. All reactions were performed in 96-well polypropylene plates for 1 hour at a temperature of about 25° C. Binding reactions were terminated by rapid filtration onto 96-well Unifilter GF/C filter plates (Perkin Elmer, Shelton, Conn.) presoaked in 0.5% polyethylenimine (Sigma). Harvesting was performed using a 96-well tissue harvester (Perkin Elmer, Shelton, Conn.) followed by five filtration washes with 200 μl ice-cold binding buffer. Filter plates were subsequently dried at 50° C. for 1-2 hours. Fifty μl/well scintillation cocktail (Perkin Elmer, Shelton, Conn.) was added and plates were counted in a Packard Top-Count for 1 min/well.
(§2) The following tables provide results on the efficacy of binding and activity response of exemplified Compounds of the Invention at the μ- and κ-opioid receptors. In TABLE 3, binding affinity of certain Compounds of the Invention to the μ- and κ-opioid receptors was determined as described above. In TABLE 4, activity response of certain Compounds of the Invention to the μ- and κ-opioid receptors was determined as described above for functional assays using HEK-293 cells. In TABLE 5, activity response of certain Compounds of the Invention to the μ- and κ-opioid receptors was determined as described above using U-2 OS cells.

[4] = molecular target: T2, μ-opioid receptors; assay: μ-opioid receptor radioligand dose-displacement binding assay ([3H]-diprenorphine); conditions: mean ± SEM, read-out: Binding Affinity Opioid Receptor Ki (nM) [mean ± SEM] μ
Procedure: Radioligand dose-displacement binding assays for μ-opioid receptors used 0.3 nM [^3H]-diprenorphine (Perkin Elmer, Shelton, Conn.), with […] membrane protein/well in a final volume of 500 μl binding buffer (10 mM MgCl2, 1 mM EDTA, 5% DMSO, 50 mM HEPES, pH 7.4). Reactions were carried out in the absence or presence of increasing concentrations of unlabeled naloxone. All reactions were conducted in 96-deep well polypropylene plates for 2 hours at room temperature. Binding reactions were terminated by rapid filtration onto 96-well Unifilter GF/C filter plates (Perkin Elmer, Shelton, Conn.), presoaked in 0.5% polyethylenimine using a 96-well tissue harvester (Perkin Elmer, Shelton, Conn.) followed by performing three filtration washes with 500 μl of ice-cold binding buffer. Filter plates were subsequently dried at 50° C. for 2-3 hours. BetaScint scintillation cocktail (Perkin Elmer, Shelton, Conn.) was added (50 μl/well), and plates were counted using a Packard Top-Count for 1 min/well. The data were analyzed using the one-site competition curve fitting functions in GraphPad PRISM™ v. 3.0 or higher (San Diego, Calif.), or an in-house function for one-site competition curve-fitting.
as §2

[5] = molecular target: T1, κ opioid receptor; assay: κ-opioid receptor [35S]GTPγS functional assay, HEK-293 cells; format: biochemical; conditions: κ GTP; for EC50: read-out: Activity Response κ EC50 (nM) [mean ± SEM]; for Emax: relative to U69,593, read-out: Activity Response κ Emax (%)
Procedure: as §1
Functional [^35S]GTPγS binding assays were conducted as follows. κ opioid receptor membrane solution was prepared by sequentially adding final concentrations of 0.026 μg/μl κ membrane protein (in-house), 10 μg/mL saponin, 3 μM GDP and 0.20 nM [^35S]GTPγS to binding buffer (100 mM NaCl, 10 mM MgCl2, 20 mM HEPES, pH 7.4) on ice. The prepared membrane solution (190 μl/well) was transferred to 96-shallow well polypropylene plates containing 10 μl of 20× concentrated stock solutions of agonist prepared in DMSO. Plates were incubated for 30 min at a temperature of about 25° C. with shaking. Reactions were terminated by rapid filtration onto 96-well Unifilter GF/B filter plates (Perkin Elmer, Shelton, Conn.) using a 96-well tissue harvester (Packard) and followed by three filtration washes with 200 μl ice-cold binding buffer (10 mM NaH2PO4, 10 mM Na2HPO4, pH 7.4). Filter plates were subsequently dried at 50° C. for 2-3 hours. Fifty μl/well scintillation cocktail (Perkin Elmer, Shelton, Conn.) was added and plates were counted in a Packard Top-Count for 1 min/well.
κ GTP EC50 is the concentration of a compound providing 50% of the maximal response for the compound at a κ receptor.
κ GTP Emax (%) is the maximal effect elicited by a compound relative to the effect elicited by U69,593.
as §2, with “In” for “The following tables provide results on the efficacy of binding and activity response of exemplified Compounds of the Invention at the μ- and κ-opioid receptors. In”

[6] = molecular target: T2, μ-opioid receptors; assay: μ-opioid receptor [35S]GTPγS functional assay, HEK-293 cells; format: biochemical; conditions: μ GTP; for EC50: read-out: Activity Response μ EC50 (nM) [mean ± SEM]; for Emax: relative to DAMGO, read-out: Activity Response μ Emax (%)

| Structure (SMILES) | EC50 [1] [nM] | Emax [1] [%] | EC50 [2] [nM] | Emax [2] [%] | Ki [3] [nM] | Ki [4] [nM] | EC50 [5] [nM] | Emax [5] [%] | EC50 [6] [nM] | Emax [6] [%] |
| --- | --- | --- | --- | --- | --- | --- | --- | --- | --- | --- |
| COc1ccc2c(c1)[C@]13CCN(CC4CC4)[C@H](C2)[C@]1(O)C[C@H](CCOCc1ccccc1)C(=O)C3 [Compound 48, (4bR,7S,8aS,9R)-7-(2-(benzyloxy)ethyl)-11-(cyclopropylmethyl)-8a-hydroxy-3-methoxy-8,8a,9,10-tetrahydro-5H-9,4b-(epiminoethano)phenanthren-6(7H)-one] | 225 ± 20.1 | 119 ± 4.91 | 38.6 ± 2.85 | 98 ± 2.65 | 65.3 ± 4.49 | 223 ± 32.5 | 362 ± 36.6 | 70.3 ± 6.94 | 463 ± 32.6 | 139 ± 3.21 |
| COc1ccc2c(c1)[C@]13CCN(CC4CC4)[C@H](C2)[C@@H]1C[C@@H](C(C)C)C(=O)C3 [Compound 72, (4bS,7S,8aR,9R)-11-(cyclopropylmethyl)-7-isopropyl-3-methoxy-8,8a,9,10-tetrahydro-5H-9,4b-(epiminoethano)phenanthren-6(7H)-one] | 303 ± 40.4 | 102 ± 2.52 | 270 ± 48.2 | 60 ± 6 | 82.9 ± 1.96 | 476 ± 118 | 1050 ± 193 | 69.3 ± 6.77 | 212 ± 48.8 | 101 ± 5.55 |
| CC(C)[C@@H]1C[C@H]2[C@H]3Cc4ccc(O)cc4[C@@]2(CCN3CC2CC2)CC1=O [Compound 73, (4bS,7S,8aR,9R)-11-(cyclopropylmethyl)-3-hydroxy-7-isopropyl-8,8a,9,10-tetrahydro-5H-9,4b-(epiminoethano)phenanthren-6(7H)-one] | 1.92 ± 0.28 | 101 ± 3.38 | 0.84 ± 0.13 | 28.3 ± 4.06 | 0.32 ± 0.11 | 1.98 ± 0.44 | 6.07 ± 1.92 | 61 ± 8.62 | 2.85 ± 0.6 | 53.2 ± 5.71 |
| CC(C)[C@H]1C[C@H]2[C@H]3Cc4ccc(O)cc4[C@@]2(CCN3CC2CC2)CC1=O [Compound 74, (4bS,7R,8aR,9R)-11-(cyclopropylmethyl)-3-hydroxy-7-isopropyl-8,8a,9,10-tetrahydro-5H-9,4b-(epiminoethano)phenanthren-6(7H)-one] | 1.42 ± 0.15 | 91.3 ± 3.76 | 3.66 ± 0.82 | 46 ± 11 | 0.33 ± 0.041 | 7.42 ± 2.25 | 3.52 ± 1 | 34 ± 5.86 | 2.31 ± 0.6 | 90.3 ± 3.84 |
